Measured values from ChEMBL document CHEMBL5723584 (2023).

Assays:
[1] = target: CDK7/Cyclin H/MNAT1 (Homo sapiens) (UniProt P51946+P50613+P51948); assay: activity of CDK7/cyclinH/MAT1(h) at 1.0 µM in the Eurofins Kinase panel; assay type: protein-complex assay; conditions: Compound concentration 1.0 uM
[2] = target: Serine/threonine-protein kinase DCLK2 (Homo sapiens) (UniProt Q8N568); assay: activity of DCAMKL2(h) at 1.0 µM in the Eurofins Kinase panel; conditions: Compound concentration 1.0 uM
[3] = target: Serine/threonine-protein kinase NLK (Homo sapiens) (UniProt Q9UBE8); assay: activity of NLK(h) at 1.0 µM in the Eurofins Kinase panel; conditions: Compound concentration 1.0 uM
[4] = target: Platelet-derived growth factor receptor alpha (Homo sapiens) (UniProt P16234); assay: activity of PDGFRalpha(h) at 1.0 µM in the Eurofins Kinase panel; conditions: Compound concentration 1.0 uM
[5] = target: BMP-2-inducible protein kinase (Homo sapiens, UniProt Q9NSY1); assay: Promega NanoBRET (BMP2K)
[6] = target: Protein kinase C alpha type (Homo sapiens) (UniProt P17252); assay: activity of PKCalpha(h) at 1.0 µM in the Eurofins Kinase panel; conditions: Compound concentration 1.0 uM
[7] = target: Serine/threonine-protein kinase Nek6 (Homo sapiens) (UniProt Q9HC98); assay: activity of NEK6(h) at 1.0 µM in the Eurofins Kinase panel; conditions: Compound concentration 1.0 uM
[8] = target: Tribbles homolog 2 (Homo sapiens) (UniProt Q92519); assay: activity of TRB2(h) at 1.0 µM in the Eurofins Kinase panel; conditions: Compound concentration 1.0 uM
[9] = target: Macrophage-stimulating protein receptor (Homo sapiens) (UniProt Q04912); assay: activity of Ron(h) at 1.0 µM in the Eurofins Kinase panel; conditions: Compound concentration 1.0 uM
[10] = target: Vascular endothelial growth factor receptor 3 (Homo sapiens) (UniProt P35916); assay: activity of Flt4(h) at 1.0 µM in the Eurofins Kinase panel; conditions: Compound concentration 1.0 uM
[11] = target: Interleukin-1 receptor-associated kinase 1 (Homo sapiens) (UniProt P51617); assay: activity of IRAK1(h) at 1.0 µM in the Eurofins Kinase panel; conditions: Compound concentration 1.0 uM
[12] = target: Homeodomain-interacting protein kinase 1 (Homo sapiens) (UniProt Q86Z02); assay: activity of HIPK1(h) at 1.0 µM in the Eurofins Kinase panel; conditions: Compound concentration 1.0 uM
[13] = target: Cyclin-dependent kinase 2/cyclin A (Homo sapiens) (UniProt P24941+P20248+P78396); assay: activity of CDK2/cyclinA(h) at 1.0 µM in the Eurofins Kinase panel; assay type: protein-complex assay; conditions: Compound concentration 1.0 uM
[14] = target: Serine/threonine-protein kinase PAK 3 (Homo sapiens) (UniProt O75914); assay: activity of PAK3(h) at 1.0 µM in the Eurofins Kinase panel; conditions: Compound concentration 1.0 uM
[15] = target: cGMP-dependent protein kinase 1 (Homo sapiens) (UniProt Q13976); assay: activity of PKG1alpha(h) at 1.0 µM in the Eurofins Kinase panel; conditions: Compound concentration 1.0 uM
[16] = target: Calcium/calmodulin-dependent protein kinase type II subunit delta (Homo sapiens) (UniProt Q13557); assay: activity of CaMKIIdelta(h) at 1.0 µM in the Eurofins Kinase panel; conditions: Compound concentration 1.0 uM
[17] = target: Misshapen-like kinase 1 (Homo sapiens) (UniProt Q8N4C8); assay: activity of MINK(h) at 1.0 µM in the Eurofins Kinase panel; conditions: Compound concentration 1.0 uM
[18] = target: MAP/microtubule affinity-regulating kinase 3 (Homo sapiens) (UniProt P27448); assay: activity of MARK3(h) at 1.0 µM in the Eurofins Kinase panel; conditions: Compound concentration 1.0 uM
[19] = target: Tyrosine-protein kinase Yes (Homo sapiens) (UniProt P07947); assay: activity of Yes(h) at 1.0 µM in the Eurofins Kinase panel; conditions: Compound concentration 1.0 uM
[20] = target: SRSF protein kinase 2 (Homo sapiens) (UniProt P78362); assay: activity of SRPK2(h) at 1.0 µM in the Eurofins Kinase panel; conditions: Compound concentration 1.0 uM
[21] = target: NUAK family SNF1-like kinase 2 (Homo sapiens) (UniProt Q9H093); assay: activity of NUAK2(h) at 1.0 µM in the Eurofins Kinase panel; conditions: Compound concentration 1.0 uM
[22] = target: Serine/threonine-protein kinase 25 (Homo sapiens) (UniProt O00506); assay: activity of STK25(h) at 1.0 µM in the Eurofins Kinase panel; conditions: Compound concentration 1.0 uM
[23] = target: MAP/microtubule affinity-regulating kinase 4 (Homo sapiens) (UniProt Q96L34); assay: activity of MARK4(h) at 1.0 µM in the Eurofins Kinase panel; conditions: Compound concentration 1.0 uM
[24] = target: Tau-tubulin kinase 2 (Homo sapiens) (UniProt Q6IQ55); assay: activity of TTBK2(h) at 1.0 µM in the Eurofins Kinase panel; conditions: Compound concentration 1.0 uM
[25] = target: Tyrosine-protein kinase SYK (Homo sapiens) (UniProt P43405); assay: activity of Syk(h) at 1.0 µM in the Eurofins Kinase panel; conditions: Compound concentration 1.0 uM
[26] = target: Insulin-like growth factor 1 receptor (Homo sapiens) (UniProt P08069); assay: activity of IGF-1R(h), activated at 1.0 µM in the Eurofins Kinase panel; conditions: Compound concentration 1.0 uM
[27] = target: Mitogen-activated protein kinase kinase kinase 20 (Homo sapiens) (UniProt Q9NYL2); assay: activity of ZAK(h) at 1.0 µM in the Eurofins Kinase panel; conditions: Compound concentration 1.0 uM
[28] = target: Testis-specific serine/threonine-protein kinase 3 (Homo sapiens) (UniProt Q96PN8); assay: activity of TSSK3(h) at 1.0 µM in the Eurofins Kinase panel; conditions: Compound concentration 1.0 uM
[29] = target: Serine/threonine-protein kinase TAO1 (Homo sapiens) (UniProt Q7L7X3); assay: activity of TAO1(h) at 1.0 µM in the Eurofins Kinase panel; conditions: Compound concentration 1.0 uM
[30] = target: Protein kinase C eta type (Homo sapiens) (UniProt P24723); assay: activity of PKCeta(h) at 1.0 µM in the Eurofins Kinase panel; conditions: Compound concentration 1.0 uM
[31] = target: Epithelial discoidin domain-containing receptor 1 (Homo sapiens) (UniProt Q08345); assay: activity of DDR1(h) at 1.0 µM in the Eurofins Kinase panel; conditions: Compound concentration 1.0 uM
[32] = target: Mitogen-activated protein kinase kinase kinase 9 (Homo sapiens) (UniProt P80192); assay: activity of MLK1(h) at 1.0 µM in the Eurofins Kinase panel; conditions: Compound concentration 1.0 uM
[33] = target: Serine/threonine-protein kinase ULK2 (Homo sapiens) (UniProt Q8IYT8); assay: activity of ULK2(h) at 1.0 µM in the Eurofins Kinase panel; conditions: Compound concentration 1.0 uM
[34] = target: SRSF protein kinase 3 (Homo sapiens) (UniProt Q9UPE1); assay: activity of MSSK1(h) at 1.0 µM in the Eurofins Kinase panel; conditions: Compound concentration 1.0 uM
[35] = target: Ephrin type-A receptor 2 (Homo sapiens) (UniProt P29317); assay: activity of EphA2(h) at 1.0 µM in the Eurofins Kinase panel; conditions: Compound concentration 1.0 uM
[36] = target: TGF-beta receptor type-1 (Homo sapiens) (UniProt P36897); assay: activity of TGFBR1(h) at 1.0 µM in the Eurofins Kinase panel; conditions: Compound concentration 1.0 uM
[37] = target: Glycogen synthase kinase-3 beta (Homo sapiens) (UniProt P49841); assay: activity of GSK3beta(h) at 1.0 µM in the Eurofins Kinase panel; conditions: Compound concentration 1.0 uM
[38] = target: Mitogen-activated protein kinase kinase kinase 5 (Homo sapiens) (UniProt Q99683); assay: activity of ASK1(h) at 1.0 µM in the Eurofins Kinase panel; conditions: Compound concentration 1.0 uM
[39] = target: Ephrin type-A receptor 5 (Homo sapiens) (UniProt P54756); assay: activity of EphA5(h) at 1.0 µM in the Eurofins Kinase panel; conditions: Compound concentration 1.0 uM

SRSF protein kinase 3 (Homo sapiens), sequence (Q9UPE1 whole entry): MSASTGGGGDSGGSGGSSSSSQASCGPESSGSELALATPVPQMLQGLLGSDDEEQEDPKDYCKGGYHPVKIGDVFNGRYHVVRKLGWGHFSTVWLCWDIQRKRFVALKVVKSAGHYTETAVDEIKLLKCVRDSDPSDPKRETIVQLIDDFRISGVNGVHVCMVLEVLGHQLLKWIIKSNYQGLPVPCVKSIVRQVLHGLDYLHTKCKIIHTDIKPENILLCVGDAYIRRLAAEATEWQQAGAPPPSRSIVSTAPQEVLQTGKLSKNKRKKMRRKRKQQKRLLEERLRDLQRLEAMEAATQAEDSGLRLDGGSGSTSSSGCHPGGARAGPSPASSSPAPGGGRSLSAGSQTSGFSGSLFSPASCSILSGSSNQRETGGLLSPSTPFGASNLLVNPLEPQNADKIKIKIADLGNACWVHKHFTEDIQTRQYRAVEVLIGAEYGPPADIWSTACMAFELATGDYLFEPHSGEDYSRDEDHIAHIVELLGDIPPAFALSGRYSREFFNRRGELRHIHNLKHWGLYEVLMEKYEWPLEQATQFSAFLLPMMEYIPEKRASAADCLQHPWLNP
Mitogen-activated protein kinase kinase kinase 20 (Homo sapiens), sequence (Q9NYL2 2-800 limits assumed): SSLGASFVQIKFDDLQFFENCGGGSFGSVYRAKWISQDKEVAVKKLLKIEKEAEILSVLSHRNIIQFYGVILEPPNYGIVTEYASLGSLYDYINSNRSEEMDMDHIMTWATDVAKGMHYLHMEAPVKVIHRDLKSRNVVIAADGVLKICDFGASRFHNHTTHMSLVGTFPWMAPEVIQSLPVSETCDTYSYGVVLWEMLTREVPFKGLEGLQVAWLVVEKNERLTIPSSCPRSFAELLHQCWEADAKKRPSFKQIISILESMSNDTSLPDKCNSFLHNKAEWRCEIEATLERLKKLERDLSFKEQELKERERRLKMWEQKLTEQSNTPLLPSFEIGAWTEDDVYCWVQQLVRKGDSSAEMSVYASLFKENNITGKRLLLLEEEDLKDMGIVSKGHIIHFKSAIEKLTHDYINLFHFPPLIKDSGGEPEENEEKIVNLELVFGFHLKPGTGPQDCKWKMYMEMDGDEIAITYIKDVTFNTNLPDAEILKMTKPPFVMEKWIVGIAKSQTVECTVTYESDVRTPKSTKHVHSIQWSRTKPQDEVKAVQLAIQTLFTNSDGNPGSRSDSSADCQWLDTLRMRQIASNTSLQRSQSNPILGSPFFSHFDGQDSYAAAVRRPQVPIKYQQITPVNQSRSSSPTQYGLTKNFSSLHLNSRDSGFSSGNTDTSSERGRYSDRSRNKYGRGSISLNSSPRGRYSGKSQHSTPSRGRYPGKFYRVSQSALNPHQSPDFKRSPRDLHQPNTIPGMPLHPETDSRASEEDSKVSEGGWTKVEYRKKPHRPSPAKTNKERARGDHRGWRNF
Protein kinase C eta type (Homo sapiens), sequence (P24723 whole entry, the tested form may be a part): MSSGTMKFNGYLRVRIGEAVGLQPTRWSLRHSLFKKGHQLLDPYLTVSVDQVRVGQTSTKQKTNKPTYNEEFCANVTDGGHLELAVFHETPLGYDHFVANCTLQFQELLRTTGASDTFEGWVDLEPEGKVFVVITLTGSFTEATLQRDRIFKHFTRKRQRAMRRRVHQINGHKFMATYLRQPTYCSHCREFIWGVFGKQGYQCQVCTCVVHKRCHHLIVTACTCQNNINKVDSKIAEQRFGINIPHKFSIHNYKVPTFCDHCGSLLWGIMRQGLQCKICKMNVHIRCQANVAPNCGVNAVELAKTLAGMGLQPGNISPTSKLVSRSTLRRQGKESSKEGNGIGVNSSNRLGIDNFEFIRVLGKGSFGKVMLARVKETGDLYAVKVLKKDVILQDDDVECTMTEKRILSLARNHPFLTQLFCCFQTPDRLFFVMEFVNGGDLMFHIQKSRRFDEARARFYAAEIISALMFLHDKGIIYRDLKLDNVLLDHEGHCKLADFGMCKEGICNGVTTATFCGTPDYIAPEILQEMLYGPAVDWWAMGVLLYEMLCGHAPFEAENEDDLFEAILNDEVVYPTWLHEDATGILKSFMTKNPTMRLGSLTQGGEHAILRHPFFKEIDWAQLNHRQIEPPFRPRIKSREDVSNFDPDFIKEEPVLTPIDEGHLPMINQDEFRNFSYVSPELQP
Interleukin-1 receptor-associated kinase 1 (Homo sapiens), sequence (P51617 whole entry, looked up): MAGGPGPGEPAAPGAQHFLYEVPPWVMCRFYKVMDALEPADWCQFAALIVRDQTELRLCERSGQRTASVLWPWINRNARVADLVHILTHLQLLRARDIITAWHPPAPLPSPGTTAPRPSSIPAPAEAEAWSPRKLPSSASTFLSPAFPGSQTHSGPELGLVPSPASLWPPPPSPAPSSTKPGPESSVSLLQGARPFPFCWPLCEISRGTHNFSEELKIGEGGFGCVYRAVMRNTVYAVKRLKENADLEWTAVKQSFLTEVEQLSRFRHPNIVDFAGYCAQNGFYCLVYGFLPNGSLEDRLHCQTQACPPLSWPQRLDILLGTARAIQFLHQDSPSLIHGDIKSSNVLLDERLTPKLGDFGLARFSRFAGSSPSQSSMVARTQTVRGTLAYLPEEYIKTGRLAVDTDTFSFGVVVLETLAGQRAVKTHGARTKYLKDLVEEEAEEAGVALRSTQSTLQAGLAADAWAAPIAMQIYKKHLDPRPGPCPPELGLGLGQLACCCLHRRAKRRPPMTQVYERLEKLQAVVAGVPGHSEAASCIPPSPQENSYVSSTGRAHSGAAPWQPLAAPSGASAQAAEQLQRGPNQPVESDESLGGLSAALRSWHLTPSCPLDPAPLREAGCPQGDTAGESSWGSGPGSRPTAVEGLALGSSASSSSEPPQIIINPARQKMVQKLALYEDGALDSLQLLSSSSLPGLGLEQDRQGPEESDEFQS
cGMP-dependent protein kinase 1 (Homo sapiens), sequence (Q13976 whole entry): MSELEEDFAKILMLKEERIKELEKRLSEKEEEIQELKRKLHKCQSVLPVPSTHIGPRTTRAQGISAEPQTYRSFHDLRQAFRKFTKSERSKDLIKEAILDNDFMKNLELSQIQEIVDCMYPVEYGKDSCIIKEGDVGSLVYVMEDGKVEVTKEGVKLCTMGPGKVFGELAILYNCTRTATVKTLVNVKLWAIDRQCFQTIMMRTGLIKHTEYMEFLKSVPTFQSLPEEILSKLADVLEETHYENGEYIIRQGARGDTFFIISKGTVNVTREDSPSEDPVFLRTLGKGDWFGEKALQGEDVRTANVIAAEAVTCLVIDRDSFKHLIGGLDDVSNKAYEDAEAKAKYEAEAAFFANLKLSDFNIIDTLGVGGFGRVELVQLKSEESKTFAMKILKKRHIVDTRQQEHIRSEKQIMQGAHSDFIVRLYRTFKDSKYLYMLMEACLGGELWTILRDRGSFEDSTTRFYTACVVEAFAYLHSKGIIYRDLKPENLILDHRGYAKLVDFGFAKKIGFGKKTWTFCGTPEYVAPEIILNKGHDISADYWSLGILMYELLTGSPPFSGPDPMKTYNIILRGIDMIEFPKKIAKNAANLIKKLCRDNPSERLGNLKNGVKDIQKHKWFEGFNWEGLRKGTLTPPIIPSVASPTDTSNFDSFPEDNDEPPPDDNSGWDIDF
Testis-specific serine/threonine-protein kinase 3 (Homo sapiens), sequence (Q96PN8 whole entry): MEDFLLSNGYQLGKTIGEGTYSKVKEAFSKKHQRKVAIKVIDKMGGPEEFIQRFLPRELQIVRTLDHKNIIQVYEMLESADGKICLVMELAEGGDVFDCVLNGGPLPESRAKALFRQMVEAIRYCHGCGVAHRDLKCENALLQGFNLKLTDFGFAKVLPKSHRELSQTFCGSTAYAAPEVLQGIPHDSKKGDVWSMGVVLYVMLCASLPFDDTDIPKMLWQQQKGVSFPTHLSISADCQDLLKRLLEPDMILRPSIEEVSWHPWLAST
Serine/threonine-protein kinase TAO1 (Homo sapiens), sequence (Q7L7X3 whole entry): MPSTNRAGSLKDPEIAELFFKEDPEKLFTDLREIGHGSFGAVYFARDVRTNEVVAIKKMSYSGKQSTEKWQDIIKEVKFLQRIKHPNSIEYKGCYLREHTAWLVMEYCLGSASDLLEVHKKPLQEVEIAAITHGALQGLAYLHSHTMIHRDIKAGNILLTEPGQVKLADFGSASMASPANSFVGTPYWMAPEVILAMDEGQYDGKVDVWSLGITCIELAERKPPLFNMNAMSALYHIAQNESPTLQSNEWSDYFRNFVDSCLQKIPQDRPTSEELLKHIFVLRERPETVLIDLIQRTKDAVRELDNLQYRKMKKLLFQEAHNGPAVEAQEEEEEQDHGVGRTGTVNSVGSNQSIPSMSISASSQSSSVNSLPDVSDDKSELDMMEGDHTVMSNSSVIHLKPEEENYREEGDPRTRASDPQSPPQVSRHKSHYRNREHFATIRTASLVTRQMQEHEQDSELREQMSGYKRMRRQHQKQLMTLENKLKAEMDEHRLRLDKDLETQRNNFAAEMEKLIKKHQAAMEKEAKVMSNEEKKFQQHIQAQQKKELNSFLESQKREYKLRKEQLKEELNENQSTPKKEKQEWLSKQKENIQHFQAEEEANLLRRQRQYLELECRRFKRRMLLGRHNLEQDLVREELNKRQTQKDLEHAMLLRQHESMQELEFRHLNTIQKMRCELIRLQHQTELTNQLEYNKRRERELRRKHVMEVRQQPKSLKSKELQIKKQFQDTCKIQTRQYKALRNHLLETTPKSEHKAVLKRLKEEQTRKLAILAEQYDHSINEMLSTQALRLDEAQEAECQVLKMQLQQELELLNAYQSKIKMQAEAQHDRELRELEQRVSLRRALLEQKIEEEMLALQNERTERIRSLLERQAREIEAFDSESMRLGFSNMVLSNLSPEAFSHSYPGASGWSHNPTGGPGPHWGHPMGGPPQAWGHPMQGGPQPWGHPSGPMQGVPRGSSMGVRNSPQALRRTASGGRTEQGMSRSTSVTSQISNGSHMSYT
Tribbles homolog 2 (Homo sapiens), sequence (Q92519 whole entry): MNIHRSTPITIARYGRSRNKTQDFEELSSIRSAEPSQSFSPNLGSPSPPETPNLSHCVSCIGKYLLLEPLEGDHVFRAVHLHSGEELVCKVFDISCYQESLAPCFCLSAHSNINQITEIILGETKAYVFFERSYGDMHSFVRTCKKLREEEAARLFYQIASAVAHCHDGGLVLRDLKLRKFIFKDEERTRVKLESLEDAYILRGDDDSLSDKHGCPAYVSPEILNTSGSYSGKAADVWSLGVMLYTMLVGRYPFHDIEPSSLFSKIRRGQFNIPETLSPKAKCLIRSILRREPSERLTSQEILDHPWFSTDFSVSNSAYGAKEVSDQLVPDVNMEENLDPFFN

- activity [1]: 95%
- activity [2]: 104%
- activity [3]: 98%
- activity [4]: 116%
- IC50 [5]: > 10 µM (not active)
- activity [6]: 92%
- activity [7]: 86%
- activity [8]: 104%
- activity [9]: 111%
- activity [10]: 96%
- activity [11]: 95%
- activity [12]: 100%
- activity [13]: 87%
- activity [14]: 89%
- activity [15]: 118%
- activity [16]: 96%
- activity [17]: 89%
- activity [18]: 90%
- activity [19]: 87%
- activity [20]: 93%
- activity [21]: 72%
- activity [22]: 92%
- activity [23]: 92%
- activity [24]: 94%
- activity [25]: 66%
- activity [26]: 93%
- activity [27]: 83%
- activity [28]: 96%
- activity [29]: 83%
- activity [30]: 118%
- activity [31]: 98%
- activity [32]: 103%
- activity [33]: 98%
- activity [34]: 134%
- activity [35]: 95%
- activity [36]: 103%
- activity [37]: 93%
- activity [38]: 100%
- activity [39]: 89%
Compound: Cc1cc2c(-c3ccc(NC(=O)[C@H](N)CC(C)(C)C)cc3C)ccnc2[nH]1
